# Measurements taken from ChEMBL document CHEMBL1143860, “Synthesis and biological activity of phosphatidylinositol-3,4,5-trisphosphorothioate” (Bioorg Med Chem Lett, 2008).
# Activity calls are given as the source filed them. No cut-off for these calls is given here.
# Test system: A6
# Assay: Agonist activity at […] expressed in A6 cells assessed as increase in insulin-stimulated sodium transport at 50 uM
# Type: functional, cell-based
smiles,measurement,value
CCCCCCCCCCCCCCCC(=O)OC[C@H](COP(=O)(O)O[C@H]1[C@H](O)[C@@H](OP(O)(O)=S)[C@H](OP(O)(O)=S)[C@@H](OP(O)(O)=S)[C@H]1O)OC(=O)CCCCCCCCCCCCCCC,Activity,Active
